Assay [1] concerns K. pneumoniae ATCC 700603. The class given is cell-based, Klebsiella pneumoniae. The text has this:
(§1) Bacteria were cultivated in Luria-Bertani (LB) broth.

For another assay, the system named is K. pneumoniae 3026. The class given is cell-based, Klebsiella pneumoniae.
Text: as §1

The next assay concerns A. baumannii 1318. The class given is cell-based, Acinetobacter baumannii.
Text: as §1

For another assay, the system named is A. baumannii 1337. The assay is classed as cell-based, Acinetobacter baumannii.
Text: as §1

For another assay, the system named is MRSA ATCC 43300. The assay is classed as cell-based, Staphylococcus aureus. As to conditions: ATCC 43300.
Text: as §1

In a further assay the test system is MRSA 3393. The assay is classed as cell-based, Staphylococcus aureus. The conditions noted are these: 3393.
Text: as §1

The next assay relates to MRSA USA 300. The class given is cell-based, Staphylococcus aureus.
Text: as §1

The next assay deals with E. coli S. The assay is classed as cell-based, Escherichia coli.
Text: as §1

The subject of another assay is E. coli ATCC 25922. The class given is cell-based, Escherichia coli.
Text: as §1

Values after ≈ are worked out from the molar mass of the structure shown. Residues, ends and D or L forms follow the SMILES beside them.

In the case of `CC[C@H](C)[C@H](NC(=O)[C@H](CCCNC(=N)N)NC(=O)[C@H](CCC(=O)O)NC(=O)[C@H](CC(C)C)NC(=O)[C@H](Cc1ccccc1)NC(=O)[C@H](Cc1ccccc1)NC(=O)[C@@H](N)Cc1ccccc1)C(=O)N[C@@H](Cc1ccccc1)C(N)=O` [SHf(E^5)] (H-FFFLERIF-NH2; N-terminus assumed), the “MIC Gram- K. p ATCC 700603” value in assay [1] was more than 100 µM. In addition, the “MIC Gram- K. p 3026” value against K. pneumoniae 3026 is more than 100 µM. Further, the “MIC Gram- A. b 1318” value against A. baumannii 1318 was more than 100 µM. For the same molecule, the “MIC Gram- A. b 1337” value with A. baumannii 1337 is more than 100 µM. In addition, in the assay on MRSA ATCC 43300, the “MIC Gram+ MRSA ATCC 43300” value is more than 100 µM. In addition, the “MIC Gram+ MRSA 3393” value against MRSA 3393 is more than 100 µM. Further, the “MIC Gram+ MRSA USA 300” value in the assay with MRSA USA 300 was more than 100 µM. Besides, the “MIC Gram- E. coli S” value with E. coli S was more than 100 µM. Besides, in the assay on E. coli ATCC 25922, the “MIC Gram- E. coli ATCC 25922” value was more than 100 µM.

Take `CC[C@H](C)[C@H](NC(=O)[C@H](CCCNC(=N)N)NC(=O)[C@H](CO)NC(=O)[C@H](CC(C)C)NC(=O)[C@H](Cc1ccccc1)NC(=O)[C@H](Cc1ccccc1)NC(=O)[C@@H](N)Cc1ccc(O)cc1)C(=O)N[C@@H](Cc1ccccc1)C(N)=O` [SHf(Y^1)] (H-YFFLSRIF-NH2; N-terminus assumed): in assay [1], the “MIC Gram- K. p ATCC 700603” value was more than 100 µM. For the same molecule, the “MIC Gram- K. p 3026” value against K. pneumoniae 3026 is more than 100 µM. The “MIC Gram- A. b 1318” value with A. baumannii 1318 is more than 100 µM. Further, in the assay with A. baumannii 1337, the “MIC Gram- A. b 1337” value is more than 100 µM. Further, the “MIC Gram+ MRSA ATCC 43300” value against MRSA ATCC 43300 was more than 100 µM. For the same molecule, in the assay with E. coli S, the “MIC Gram- E. coli S” value is more than 100 µM. For the same molecule, the “MIC Gram- E. coli ATCC 25922” value against E. coli ATCC 25922 was more than 100 µM.

On to `CC[C@H](C)[C@H](NC(=O)[C@H](CCCNC(=N)N)NC(=O)[C@H](CO)NC(=O)[C@H](CC(C)C)NC(=O)[C@H](Cc1ccccc1)NC(=O)[C@@H](N)Cc1ccccc1)C(=O)N[C@@H](Cc1ccccc1)C(N)=O` [SHfΔ1F] (H-FFLSRIF-NH2), for which, in assay [1], the “MIC Gram- K. p ATCC 700603” value was more than 100 µM. In the assay on K. pneumoniae 3026, the “MIC Gram- K. p 3026” value is more than 100 µM. Moreover, the “MIC Gram- A. b 1318” value in the assay on A. baumannii 1318 is more than 100 µM. In addition, in the assay on A. baumannii 1337, the “MIC Gram- A. b 1337” value is more than 100 µM. Moreover, the “MIC Gram+ MRSA ATCC 43300” value against MRSA ATCC 43300 is more than 100 µM. The “MIC Gram+ MRSA 3393” value in the assay with MRSA 3393 was more than 100 µM. In addition, the “MIC Gram+ MRSA USA 300” value against MRSA USA 300 was more than 100 µM. Further, the “MIC Gram- E. coli S” value with E. coli S was more than 100 µM. The “MIC Gram- E. coli ATCC 25922” value in the assay with E. coli ATCC 25922 is more than 100 µM.

For `CC[C@H](C)[C@H](NC(=O)[C@H](CCCNC(=N)N)NC(=O)[C@H](CO)NC(=O)[C@H](CC(C)C)NC(=O)[C@@H](N)Cc1ccccc1)C(=O)N[C@@H](Cc1ccccc1)C(N)=O` [SHfΔ2F] (H-FLSRIF-NH2; N-terminus assumed), the “MIC Gram- K. p ATCC 700603” value in assay [1] was more than 100 µM. In the assay with K. pneumoniae 3026, the “MIC Gram- K. p 3026” value was more than 100 µM. For the same molecule, in the assay with A. baumannii 1318, the “MIC Gram- A. b 1318” value is more than 100 µM. Moreover, the “MIC Gram- A. b 1337” value against A. baumannii 1337 was more than 100 µM. For the same molecule, the “MIC Gram+ MRSA ATCC 43300” value in the assay on MRSA ATCC 43300 is more than 100 µM. Further, the “MIC Gram+ MRSA 3393” value with MRSA 3393 is more than 100 µM. Further, in the assay with MRSA USA 300, the “MIC Gram+ MRSA USA 300” value is more than 100 µM. Moreover, the “MIC Gram- E. coli S” value in the assay on E. coli S was more than 100 µM. In addition, the “MIC Gram- E. coli ATCC 25922” value with E. coli ATCC 25922 was more than 100 µM.

For the molecule `CC[C@H](C)[C@H](NC(=O)[C@H](CCCNC(=N)N)NC(=O)[C@H](CCCNC(=N)N)NC(=O)[C@H](CC(C)C)NC(=O)[C@H](Cc1ccccc1)NC(=O)[C@H](Cc1ccccc1)NC(=O)[C@H](Cc1ccccc1)NC(=O)[C@@H](N)Cc1ccc(O)cc1)C(=O)N[C@@H](Cc1ccccc1)C(N)=O` [Y-SHf(R^5)] (H-YFFFLRRIF-NH2; N-terminus assumed), in assay [1], the “MIC Gram- K. p ATCC 700603” value was more than 100 µM. In addition, the “MIC Gram- K. p 3026” value in the assay with K. pneumoniae 3026 was more than 100 µM. Besides, the “MIC Gram- A. b 1318” value against A. baumannii 1318 is more than 100 µM. In addition, in the assay on A. baumannii 1337, the “MIC Gram- A. b 1337” value came out at 50 µM (≈ 65.4 µg/mL). For the same molecule, the “MIC Gram+ MRSA ATCC 43300” value in the assay with MRSA ATCC 43300 is 3.13 µM (≈ 4.09 µg/mL). Further, the “MIC Gram+ MRSA 3393” value against MRSA 3393 is 3.13 µM (≈ 4.09 µg/mL). In addition, in the assay with MRSA USA 300, the “MIC Gram+ MRSA USA 300” value is 6.25 µM (≈ 8.17 µg/mL). In addition, in the assay on E. coli S, the “MIC Gram- E. coli S” value was more than 100 µM. In the assay on E. coli ATCC 25922, the “MIC Gram- E. coli ATCC 25922” value was determined as 50 µM (≈ 65.4 µg/mL).

As to `CC[C@H](C)[C@H](NC(=O)[C@H](CCCNC(=N)N)NC(=O)[C@H](CO)NC(=O)[C@H](CC(C)C)NC(=O)[C@H](Cc1ccccc1)NC(=O)[C@H](Cc1ccccc1)NC(=O)[C@H](Cc1ccc(O)cc1)NC(=O)[C@@H](N)Cc1ccc(O)cc1)C(=O)N[C@@H](Cc1ccccc1)C(N)=O` [Y-SHf(Y^1)] (H-YYFFLSRIF-NH2; N-terminus assumed), the “MIC Gram- K. p ATCC 700603” value in [1] is more than 100 µM. The “MIC Gram- K. p 3026” value with K. pneumoniae 3026 is more than 100 µM. In the assay with A. baumannii 1318, the “MIC Gram- A. b 1318” value is more than 100 µM. The “MIC Gram- A. b 1337” value against A. baumannii 1337 was more than 100 µM. Further, in the assay with E. coli S, the “MIC Gram- E. coli S” value is more than 100 µM. For the same molecule, the “MIC Gram- E. coli ATCC 25922” value against E. coli ATCC 25922 is more than 100 µM.

These data come from article PMC10657444, “Design and evaluation of tadpole-like conformational antimicrobial peptides” (Communications Biology, 2023).
